Measured values taken from patent US11730720B2, “ALK5 inhibitors” (THERAVANCE BIOPHARMA R&D IP, LLC, priority 2018, dated 2023).

Key:
[1] = molecular target: T1, recombinant human ALK5 (TGF-βR1) protein (Homo sapiens, UniProt P36897); assay: Biochemical ALK5 (TGF-βR1) assay to measure pKi (LANCE Ultra ULight kinase assay); conditions: apparent pKi, converted from pIC50 using the Cheng-Prusoff equation
T1 construct: purchased Life Technologies PR9075A
T1 sequence (P36897 34-503): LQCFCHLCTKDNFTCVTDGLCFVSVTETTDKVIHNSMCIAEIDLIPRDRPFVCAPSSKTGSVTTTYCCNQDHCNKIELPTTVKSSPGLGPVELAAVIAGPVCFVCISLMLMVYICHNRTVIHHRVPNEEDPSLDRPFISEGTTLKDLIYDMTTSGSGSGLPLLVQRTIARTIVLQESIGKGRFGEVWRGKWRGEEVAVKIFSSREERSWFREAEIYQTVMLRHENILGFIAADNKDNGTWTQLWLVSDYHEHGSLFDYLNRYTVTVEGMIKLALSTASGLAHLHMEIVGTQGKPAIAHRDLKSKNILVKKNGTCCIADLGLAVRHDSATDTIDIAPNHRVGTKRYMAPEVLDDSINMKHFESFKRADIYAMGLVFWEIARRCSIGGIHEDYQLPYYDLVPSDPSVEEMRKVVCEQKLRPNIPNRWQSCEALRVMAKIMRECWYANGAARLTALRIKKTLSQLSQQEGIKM
Method in brief: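 TR-FRET kinase format: compound dose range 10 μM–25 pM equilibrated 60 min with human ALK5 and ULight-labelled topoisomerase 2α peptide in HEPES/MgCl2 buffer pH 7.5 with DTT. Reaction started with ATP (125 μM stock, 5× final), 60 min at 37° C, stopped with EDTA/Eu-anti-phospho antibody; pKi derived from pIC50 via Cheng-Prusoff.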

[2] = tested on: TGF-β-stimulated SMAD3 phosphorylation in BEAS-2B cells; assay: Cellular ALK5 potency assay, inhibition of TGF-β stimulated pSMAD3 formation in BEAS-2B cells; type: cell-based; conditions: Homo sapiens, inhibition of TGF-β (10 ng/mL) stimulated pSMAD3 formation, 1 hour compound incubation, read-out: BEAS2B pIC50 (converted)
Method in brief: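 Phospho-SMAD3 was quantified by AlphaLISA in lysates of human lung epithelial BEAS-2B cells. Compound was added 1 h (37 °C, HEPES/BSA-supplemented HBSS) before a 30 min challenge with 10 ng/mL TGF-β. Values are pIC50 relative to stimulated cells without compound.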

Compound: Fc1ccc(Cl)cc1-c1n[nH]cc1-c1ccc2ncc(-c3[nH]nc4c3CNCC4)cc2n1 [Compound 1-115, 2-[3-(5-chloro-2-fluoro-phenyl)-1H-pyrazol-4-yl]-7-(4,5,6,7-tetrahydro-2H-pyrazolo[4,3-c]pyridin-3-yl)-1,5-naphthyridine]
- Ki [1]: 0.0398 to 0.316 nM
- IC50 [2]: 25.1 to 158 nM

Compound: Fc1ccc(Cl)cc1-c1n[nH]cc1-c1ccc2ncc(-c3cn4c(n3)CNCC4)cc2n1 [Compound 1-116, 2-[3-(5-chloro-2-fluoro-phenyl)-1H-pyrazol-4-yl]-7-(5,6,7,8-tetrahydroimidazo[1,2-a]pyrazin-2-yl)-1,5-naphthyridine]
- Ki [1]: 0.0398 to 0.316 nM
- IC50 [2]: 25.1 to 158 nM

Compound: Fc1ccc(Cl)cc1-c1n[nH]cc1-c1ccc2ncc(NCC3CCCNC3)cc2n1 (stereo not shown) [Compound 1-117, 6-[3-(5-chloro-2-fluoro-phenyl)-1H-pyrazol-4-yl]-N-(3-piperidylmethyl)-1,5-naphthyridin-3-amine]
- Ki [1]: 0.398 to 3.16 nM
- IC50 [2]: 200 to 1260 nM

Compound: Fc1ccc(Cl)cc1-c1n[nH]cc1-c1ccc2ncc(-c3nnn4c3NCCC4)cc2n1 [Compound 1-118, 2-[3-(5-chloro-2-fluoro-phenyl)-1H-pyrazol-4-yl]-7-(4,5,6,7-tetrahydrotriazolo[1,5-a]pyrimidin-3-yl)-1,5-naphthyridine]
- Ki [1]: 0.0398 to 0.316 nM
- IC50 [2]: ≤ 20 nM

Compound: Fc1ccc(Cl)cc1-c1n[nH]cc1-c1ccc2ncc(-c3nc(C(F)(F)F)n4c3CNCC4)cc2n1 [Compound 1-119, 2-[3-(5-chloro-2-fluoro-phenyl)-1H-pyrazol-4-yl]-7-[3-(trifluoromethyl)-5,6,7,8-tetrahydroimidazo[1,5-a]pyrazin-1-yl]-1,5-naphthyridine]
- Ki [1]: 0.398 to 3.16 nM
- IC50 [2]: 25.1 to 158 nM

Compound: Cc1nn2c(c1-c1cnc3ccc(-c4c[nH]nc4-c4cc(Cl)ccc4F)nc3c1)NCCC2 [Compound 1-120, 2-[3-(5-chloro-2-fluoro-phenyl)-1H-pyrazol-4-yl]-7-(2-methyl-4,5,6,7-tetrahydropyrazolo[1,5-a]pyrimidin-3-yl)-1,5-naphthyridine]
- Ki [1]: 0.398 to 3.16 nM
- IC50 [2]: 25.1 to 158 nM

Compound: Fc1ccc(Cl)cc1-c1n[nH]cc1-c1ccc2ncc(-c3[nH]nc4c3CCNC4)cc2n1 [Compound 1-121, 2-[3-(5-chloro-2-fluoro-phenyl)-1H-pyrazol-4-yl]-7-(4,5,6,7-tetrahydro-2H-pyrazolo[3,4-c]pyridin-3-yl)-1,5-naphthyridine]
- Ki [1]: 0.0398 to 0.316 nM
- IC50 [2]: 25.1 to 158 nM

Compound: CC1CN(c2cnc3ccc(-c4c[nH]nc4-c4cc(Cl)ccc4F)nc3c2)CC(C)N1CCN (stereo not shown) [Compound 1-122, 2-[4-[6-[3-(5-chloro-2-fluoro-phenyl)-1H-pyrazol-4-yl]-1,5-naphthyridin-3-yl]-2,6-dimethyl-piperazin-1-yl]ethanamine]
- Ki [1]: 0.0398 to 0.316 nM
- IC50 [2]: 25.1 to 158 nM

Compound: Fc1ccc(Cl)cc1-c1n[nH]cc1-c1ccc2ncc(-c3nnn4c3NCC4)cc2n1 [Compound 1-123, 2-[3-(5-chloro-2-fluoro-phenyl)-1H-pyrazol-4-yl]-7-(5,6-dihydro-4H-imidazo[1,2-c]triazol-3-yl)-1,5-naphthyridine]
- Ki [1]: 0.0398 to 0.316 nM
- IC50 [2]: 25.1 to 158 nM

Compound: Fc1ccc(Cl)cc1-c1n[nH]cc1-c1ccc2ncc(-c3cnc4n3CCCN4)cc2n1 [Compound 1-124, 2-[3-(5-chloro-2-fluoro-phenyl)-1H-pyrazol-4-yl]-7-(5,6,7,8-tetrahydroimidazo[1,2-a]pyrimidin-3-yl)-1,5-naphthyridine]
- Ki [1]: 0.0398 to 0.316 nM
- IC50 [2]: 25.1 to 158 nM

Compound: Fc1ccc(Cl)cc1-c1n[nH]cc1-c1ccc2ncc(-c3[nH]nc4c3CCN4)cc2n1 [Compound 1-125, 2-[3-(5-chloro-2-fluoro-phenyl)-1H-pyrazol-4-yl]-7-(2,4,5,6-tetrahydropyrrolo[2,3-c]pyrazol-3-yl)-1,5-naphthyridine]
- Ki [1]: 0.0398 to 0.316 nM
- IC50 [2]: 25.1 to 158 nM

Compound: COC(=O)N1CCc2nnc(-c3cnc4ccc(-c5c[nH]nc5-c5cc(Cl)ccc5F)nc4c3)cc2C1 [Compound 1-126, methyl 3-[6-[3-(5-chloro-2-fluoro-phenyl)-1H-pyrazol-4-yl]-1,5-naphthyridin-3-yl]-7,8-dihydro-5H-pyrido[4,3-c]pyridazine-6-carboxylate]
- Ki [1]: 0.0398 to 0.316 nM
- IC50 [2]: 25.1 to 158 nM

Compound: CCOC(=O)CNCCn1cc(-c2cnc3ccc(-c4c[nH]nc4-c4cc(Cl)ccc4F)nc3c2)cn1 [Compound 1-127, ethyl 2-[2-[4-[6-[3-(5-chloro-2-fluoro-phenyl)-1H-pyrazol-4-yl]-1,5-naphthyridin-3-yl]pyrazol-1-yl]ethylamino]acetate]
- Ki [1]: ≤ 0.0316 nM
- IC50 [2]: 200 to 1260 nM

Compound: Fc1ccc(Cl)cc1-c1n[nH]cc1-c1ccc2ncc(N3CCn4nc(N5CCNCC5)cc4C3)cc2n1 [Compound 1-128, 2-[3-(5-chloro-2-fluoro-phenyl)-1H-pyrazol-4-yl]-7-(2-piperazin-1-yl-6,7-dihydro-4H-pyrazolo[1,5-a]pyrazin-5-yl)-1,5-naphthyridine]
- Ki [1]: 0.0398 to 0.316 nM
- IC50 [2]: 200 to 1260 nM

Compound: Fc1ccc(Cl)cc1-c1n[nH]cc1-c1ccc2ncc(-c3ncc4n3CCN4)cc2n1 [Compound 1-129, 2-[3-(5-chloro-2-fluoro-phenyl)-1H-pyrazol-4-yl]-7-(2,3-dihydro-1H-imidazo[1,2-c]imidazol-5-yl)-1,5-naphthyridine]
- Ki [1]: 0.398 to 3.16 nM
- IC50 [2]: 200 to 1260 nM

Compound: O=C(O)[C@H]1CN(c2cnc3ccc(-c4c[nH]nc4-c4cc(Cl)ccc4F)nc3c2)CCN1 [Compound 1-130, (2R)-4-[6-[3-(5-chloro-2-fluoro-phenyl)-1H-pyrazol-4-yl]-1,5-naphthyridin-3-yl]piperazine-2-carboxylic acid]
- Ki [1]: 0.398 to 3.16 nM
- IC50 [2]: 200 to 1260 nM

Compound: CNCCn1cc(-c2cnc3ccc(-c4c[nH]nc4-c4cc(Cl)ccc4F)nc3c2)nn1 [Compound 1-131, 2-[4-[6-[3-(5-chloro-2-fluoro-phenyl)-1H-pyrazol-4-yl]-1,5-naphthyridin-3-yl]triazol-1-yl]-N-methyl-ethanamine]
- Ki [1]: 0.0398 to 0.316 nM
- IC50 [2]: ≤ 20 nM

Compound: O=C(NCCN1CCCC1)[C@H]1CN(c2cnc3ccc(-c4c[nH]nc4-c4cc(Cl)ccc4F)nc3c2)CCN1 [Compound 1-132, (2R)-4-[6-[3-(5-chloro-2-fluoro-phenyl)-1H-pyrazol-4-yl]-1,5-naphthyridin-3-yl]-N-(2-pyrrolidin-1-ylethyl)piperazine-2-carboxamide]
- Ki [1]: 0.0398 to 0.316 nM
- IC50 [2]: 200 to 1260 nM

Compound: O=C(O)C1CN(CCNc2cnc3ccc(-c4c[nH]nc4-c4cc(Cl)ccc4F)nc3c2)CCN1 (stereo not shown) [Compound 1-133, 4-[2-[[6-[3-(5-chloro-2-fluoro-phenyl)-1H-pyrazol-4-yl]-1,5-naphthyridin-3-yl]amino]ethyl]piperazine-2-carboxylic acid]
- Ki [1]: 0.0398 to 0.316 nM
- IC50 [2]: 200 to 1260 nM

Compound: COC(=O)[C@H]1CN(c2cnc3ccc(-c4c[nH]nc4-c4cc(Cl)ccc4F)nc3c2)CCN1CCN [Compound 1-134, methyl (2R)-1-(2-aminoethyl)-4-[6-[3-(5-chloro-2-fluoro-phenyl)-1H-pyrazol-4-yl]-1,5-naphthyridin-3-yl]piperazine-2-carboxylate]
- Ki [1]: 0.398 to 3.16 nM
- IC50 [2]: 25.1 to 158 nM

Compound: NC1CCN(c2cnc3ccc(-c4c[nH]nc4-c4cc(Cl)ccc4F)nc3c2)CC1 [Compound 1-135, 1-[6-[3-(5-chloro-2-fluoro-phenyl)-1H-pyrazol-4-yl]-1,5-naphthyridin-3-yl]piperidin-4-amine]
- Ki [1]: 0.0398 to 0.316 nM
- IC50 [2]: 25.1 to 158 nM

Compound: COC(=O)CC1CN(c2cnc3ccc(-c4c[nH]nc4-c4cc(Cl)ccc4F)nc3c2)CCN1 (stereo not shown) [Compound 1-136, methyl 2-[4-[6-[3-(5-chloro-2-fluoro-phenyl)-1H-pyrazol-4-yl]-1,5-naphthyridin-3-yl]piperazin-2-yl]acetate]
- Ki [1]: 0.0398 to 0.316 nM
- IC50 [2]: ≤ 20 nM

Compound: CN1CCN(c2ccc(Nc3cnc4ccc(-c5nc[nH]c5-c5cc(Cl)ccc5F)nc4c3)nc2)CC1 [Compound 2-1, 6-(5-(5-chloro-2-fluorophenyl)-1H-imidazol-4-yl)-N-(5-(4-methylpiperazin-1-yl)pyridin-2-yl)-1,5-naphthyridin-3-amine]
- Ki [1]: 0.0398 to 0.316 nM
- IC50 [2]: 25.1 to 158 nM

Compound: CC(C)N1CCN(CCNc2cnc3ccc(-c4nc[nH]c4-c4cc(Cl)ccc4F)nc3c2)CC1 [Compound 2-2, 6-[5-(5-chloro-2-fluoro-phenyl)-1H-imidazol-4-yl]-N-[2-(4-isopropylpiperazin-1-yl)ethyl]-1,5-naphthyridin-3-amine]
- Ki [1]: 0.0398 to 0.316 nM
- IC50 [2]: 25.1 to 158 nM

Compound: CC1(C)CCCN1CCNc1cnc2ccc(-c3nc[nH]c3-c3cc(Cl)ccc3F)nc2c1 [Compound 2-3, 6-[5-(5-chloro-2-fluoro-phenyl)-1H-imidazol-4-yl]-N-[2-(2,2-dimethylpyrrolidin-1-yl)ethyl]-1,5-naphthyridin-3-amine]
- Ki [1]: 0.0398 to 0.316 nM
- IC50 [2]: 25.1 to 158 nM

Compound: Fc1ccc(Cl)cc1-c1[nH]cnc1-c1ccc2ncc(Nc3ccc(N4CCNCC4)cn3)cc2n1 [Compound 2-4, 6-[5-(5-chloro-2-fluoro-phenyl)-1H-imidazol-4-yl]-N-(5-piperazin-1-yl-2-pyridyl)-1,5-naphthyridin-3-amine]
- Ki [1]: 0.0398 to 0.316 nM
- IC50 [2]: 25.1 to 158 nM
